Reference: ChEMBL document CHEMBL5154928, “Structure-Aided Design, Synthesis, and Biological Evaluation of Potent and Selective Non-Nucleoside Inhibitors Targeting Protein Arginine Methyltransferase 5” (J Med Chem, 2022)

Key:
[1] = target: T1, Histone-lysine N-methyltransferase NSD2 (Homo sapiens, UniProt O96028); assay: Inhibition of NSD2 (unknown origin) using histone H4 (1 to 21 residues) peptide/SAM as substrate incubated for 210 mins in presence of SAM by AlphaLISA assay
T1 sequence (O96028 whole entry): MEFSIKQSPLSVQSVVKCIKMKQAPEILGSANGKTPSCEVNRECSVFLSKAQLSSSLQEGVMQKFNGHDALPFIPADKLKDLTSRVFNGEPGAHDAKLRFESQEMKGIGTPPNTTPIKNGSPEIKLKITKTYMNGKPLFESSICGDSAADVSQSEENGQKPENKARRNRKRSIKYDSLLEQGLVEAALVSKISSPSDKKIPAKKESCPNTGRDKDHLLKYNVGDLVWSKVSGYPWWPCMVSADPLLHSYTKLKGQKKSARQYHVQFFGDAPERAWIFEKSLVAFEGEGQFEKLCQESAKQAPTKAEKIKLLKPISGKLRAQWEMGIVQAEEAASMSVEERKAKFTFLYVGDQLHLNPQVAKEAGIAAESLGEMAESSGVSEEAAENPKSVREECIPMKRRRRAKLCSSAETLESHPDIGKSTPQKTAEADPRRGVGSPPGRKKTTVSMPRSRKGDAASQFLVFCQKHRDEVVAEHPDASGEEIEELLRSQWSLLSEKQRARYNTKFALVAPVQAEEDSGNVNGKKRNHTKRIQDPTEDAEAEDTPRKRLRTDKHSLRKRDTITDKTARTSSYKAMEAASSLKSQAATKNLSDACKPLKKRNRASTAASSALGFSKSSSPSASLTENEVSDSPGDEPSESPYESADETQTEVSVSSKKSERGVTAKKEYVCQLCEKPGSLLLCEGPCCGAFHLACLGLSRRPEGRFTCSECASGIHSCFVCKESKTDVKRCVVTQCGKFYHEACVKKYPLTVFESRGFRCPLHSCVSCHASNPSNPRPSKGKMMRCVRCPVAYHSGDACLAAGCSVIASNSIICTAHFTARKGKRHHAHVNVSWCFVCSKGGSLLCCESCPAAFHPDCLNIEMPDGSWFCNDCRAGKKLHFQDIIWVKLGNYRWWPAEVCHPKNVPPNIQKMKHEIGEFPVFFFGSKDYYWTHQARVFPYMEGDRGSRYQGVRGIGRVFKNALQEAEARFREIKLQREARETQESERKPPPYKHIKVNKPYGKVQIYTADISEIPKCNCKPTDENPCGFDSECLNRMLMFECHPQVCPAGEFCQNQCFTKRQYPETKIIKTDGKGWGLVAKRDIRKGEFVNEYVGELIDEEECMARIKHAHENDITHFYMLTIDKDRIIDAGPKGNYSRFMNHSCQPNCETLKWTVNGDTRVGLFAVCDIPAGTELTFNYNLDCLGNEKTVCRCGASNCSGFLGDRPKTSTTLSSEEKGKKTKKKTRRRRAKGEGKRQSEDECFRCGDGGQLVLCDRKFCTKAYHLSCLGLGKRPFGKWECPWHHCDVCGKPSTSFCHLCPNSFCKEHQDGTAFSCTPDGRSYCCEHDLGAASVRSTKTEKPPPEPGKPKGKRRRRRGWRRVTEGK

[2] = system: A-375; assay: Induction of apoptosis in human A-375 cells assessed as total apoptotic cells at 4 uM incubated for 48 hrs by Annexin-V FITC/PI staining based flow cytometry analysis relative to control; format: functional
[3] = target: Histone-lysine N-methyltransferase 2B (Homo sapiens, UniProt Q9UMN6); assay: Inhibition of MLL4 (unknown origin) using peptide substrate preincubated for 10 mins followed by substrate addition for 4 hrs by HTRF assay
Histone-lysine N-methyltransferase 2B, sequence (Q9UMN6 whole entry): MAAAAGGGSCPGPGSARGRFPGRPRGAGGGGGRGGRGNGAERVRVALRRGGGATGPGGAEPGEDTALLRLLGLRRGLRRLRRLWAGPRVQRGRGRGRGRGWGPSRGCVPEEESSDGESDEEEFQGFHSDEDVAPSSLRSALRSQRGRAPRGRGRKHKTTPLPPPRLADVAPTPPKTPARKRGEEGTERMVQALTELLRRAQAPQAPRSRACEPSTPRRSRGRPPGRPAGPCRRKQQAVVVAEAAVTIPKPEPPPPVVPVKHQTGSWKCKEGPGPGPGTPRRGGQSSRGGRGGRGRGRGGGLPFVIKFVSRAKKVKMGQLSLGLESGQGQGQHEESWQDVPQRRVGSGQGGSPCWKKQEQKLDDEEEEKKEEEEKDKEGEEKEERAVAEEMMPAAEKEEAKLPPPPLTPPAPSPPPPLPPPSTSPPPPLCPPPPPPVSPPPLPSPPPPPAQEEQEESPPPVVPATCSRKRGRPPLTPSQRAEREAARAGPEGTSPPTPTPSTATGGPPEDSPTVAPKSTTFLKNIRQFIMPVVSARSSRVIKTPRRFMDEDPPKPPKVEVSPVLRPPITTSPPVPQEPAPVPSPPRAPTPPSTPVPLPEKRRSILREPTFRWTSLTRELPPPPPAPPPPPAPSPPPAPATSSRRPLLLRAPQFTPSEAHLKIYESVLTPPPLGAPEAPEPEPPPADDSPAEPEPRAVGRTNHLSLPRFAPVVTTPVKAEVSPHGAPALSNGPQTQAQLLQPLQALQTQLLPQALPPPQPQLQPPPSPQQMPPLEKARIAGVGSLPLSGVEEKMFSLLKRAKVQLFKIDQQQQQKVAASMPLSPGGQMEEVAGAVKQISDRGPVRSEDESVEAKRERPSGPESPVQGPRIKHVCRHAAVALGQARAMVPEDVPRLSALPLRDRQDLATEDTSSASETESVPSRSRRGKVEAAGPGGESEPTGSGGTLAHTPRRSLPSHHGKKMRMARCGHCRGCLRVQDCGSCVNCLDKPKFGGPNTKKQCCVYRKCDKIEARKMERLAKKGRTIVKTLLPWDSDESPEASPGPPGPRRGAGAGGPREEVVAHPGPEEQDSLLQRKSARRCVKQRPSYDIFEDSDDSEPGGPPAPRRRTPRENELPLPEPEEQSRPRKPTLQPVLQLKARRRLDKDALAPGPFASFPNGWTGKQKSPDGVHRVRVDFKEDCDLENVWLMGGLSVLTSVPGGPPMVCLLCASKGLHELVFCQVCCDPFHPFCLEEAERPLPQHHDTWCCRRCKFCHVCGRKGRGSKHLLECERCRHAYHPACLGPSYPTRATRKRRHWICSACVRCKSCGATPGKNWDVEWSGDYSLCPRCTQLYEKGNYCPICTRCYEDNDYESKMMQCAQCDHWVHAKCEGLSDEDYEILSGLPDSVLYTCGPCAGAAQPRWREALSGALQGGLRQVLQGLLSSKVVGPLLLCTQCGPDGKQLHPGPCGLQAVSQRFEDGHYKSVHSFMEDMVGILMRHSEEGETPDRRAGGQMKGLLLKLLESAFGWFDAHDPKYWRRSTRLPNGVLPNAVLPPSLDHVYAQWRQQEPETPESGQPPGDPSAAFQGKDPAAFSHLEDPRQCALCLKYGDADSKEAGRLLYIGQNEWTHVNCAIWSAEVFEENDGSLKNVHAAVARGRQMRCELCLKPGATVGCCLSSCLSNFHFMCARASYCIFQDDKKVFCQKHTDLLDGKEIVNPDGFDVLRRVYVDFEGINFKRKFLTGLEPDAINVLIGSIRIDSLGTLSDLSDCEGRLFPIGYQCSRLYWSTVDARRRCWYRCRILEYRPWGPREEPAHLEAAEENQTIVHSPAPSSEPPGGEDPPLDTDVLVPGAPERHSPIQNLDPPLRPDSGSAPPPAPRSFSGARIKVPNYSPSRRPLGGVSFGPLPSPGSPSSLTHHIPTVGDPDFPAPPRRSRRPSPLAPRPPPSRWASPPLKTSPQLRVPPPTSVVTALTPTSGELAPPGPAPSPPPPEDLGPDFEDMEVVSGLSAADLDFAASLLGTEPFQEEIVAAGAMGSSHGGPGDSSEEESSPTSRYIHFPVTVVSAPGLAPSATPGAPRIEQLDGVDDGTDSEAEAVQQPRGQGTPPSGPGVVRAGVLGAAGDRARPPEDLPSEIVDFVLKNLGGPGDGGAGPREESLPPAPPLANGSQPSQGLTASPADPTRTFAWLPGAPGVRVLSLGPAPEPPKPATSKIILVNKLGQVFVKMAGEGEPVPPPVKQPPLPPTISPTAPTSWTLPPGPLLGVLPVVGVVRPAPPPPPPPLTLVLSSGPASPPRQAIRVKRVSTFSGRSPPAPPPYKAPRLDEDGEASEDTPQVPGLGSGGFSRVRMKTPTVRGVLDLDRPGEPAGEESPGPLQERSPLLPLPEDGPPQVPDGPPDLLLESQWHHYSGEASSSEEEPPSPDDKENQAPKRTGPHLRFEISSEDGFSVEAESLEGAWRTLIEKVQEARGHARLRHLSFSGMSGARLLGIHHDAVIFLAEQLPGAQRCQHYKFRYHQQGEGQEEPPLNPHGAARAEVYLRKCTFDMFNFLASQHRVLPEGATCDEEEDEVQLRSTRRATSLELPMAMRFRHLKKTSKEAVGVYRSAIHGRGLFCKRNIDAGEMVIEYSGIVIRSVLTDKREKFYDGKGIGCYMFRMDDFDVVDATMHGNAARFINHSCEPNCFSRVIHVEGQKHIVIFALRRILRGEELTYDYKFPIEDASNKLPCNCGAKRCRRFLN

C[C@H](Oc1ccc(-c2cc3c(C4=CCNCC4)ncnc3[nH]2)cc1)c1ccccc1
IC50 [1]: > 20 µM
Activity [2]: 95.9%
IC50 [3]: > 20 µM
